According to paper PMC10643566, “Insights into the mechanism of SARS-CoV-2 main protease autocatalytic maturation from model precursors” (Communications Biology, 2023):
Values joined by “and” are separate entries in the source; they are usually repeats but may differ in a detail not shown here. Identical values can stand only once.

What was measured:
[1] = tested on: nsp4/nsp5 cleavage site; type: biochemical, SARS-CoV-2
[2] = molecular target: MPro^M (E290A and R298A mutations); details: read-out: GC373 binding (Kd), determined by ITC, ref [11],[13]; cited from earlier work
[3] = molecular target: MPro^1–199 (catalytic domain); details: read-out: GC373 binding (Kd), determined by ITC, ref [11],[13]; cited from earlier work
[4] = molecular target: MPro^WT; details: read-out: GC373 binding (Kd), determined by ITC, ref [11],[13]; cited from earlier work

Compound | % Conversion at 15 h [1] | % Conversion at 24 h [1] | Δ[P] at 24 h [1] | Kd [2] [µM] | Kd [3] [µM] | Kd [4] [µM]
^(−25)MPro^1–199: precursor with 25 nsp4 residues appended to the N-terminus of catalytic domain MPro^1–199 | 32.2% and 32.4% | 42.2% and 43.2% | 40.5 ± 0.4 µM and 20.7 ± 0.2 µM | – | – | –
CC(C)C[C@H](NC(=O)OCc1ccccc1)C(=O)N[C@H](C=O)C[C@@H]1CCNC1=O [GC373] | – | – | – | 6.13 ± 0.3 | 32 ± 5 | 0.15
